# Results published in US20180280517A1, “Nanocomposite, a Preparation Method Thereof and Method for Treating Cancer Using the Same” (National Chiao Tung University, priority 2017, published 2018).
# Assays:
# A549-ON = A549-ON cell viability / combination index; format: cell-based
# Text: (§1) The combination index or CI means a value acquired through a calculation based on the Combination Index Theorem. From CI value, the interaction between components within a drug having multiple components can be understood. For example, the CI value quantitatively defines synergism (CI<1), additive effect (CI=1), and antagonism (CI>1) among components.
# (§2) The expression fraction affected (Fa) means the fraction affected of a component according to Median-Effect Principle. A CI-Fa plot can be used to define the synergism and antagonism relation between different components.
# In a preferable embodiment, A549-ON is chosen as the cancer cell model. A549-ON is incubated with DMC, GEM, CHC/DMC, and CHC/GEM respectively to observe cell viability. In Table 3, DMC and GEM encapsulated by CHC has smaller IC50 comparing to those without CHC encapsulation, providing that an anti-cancer component encapsulated by CHC has higher toxic effect to the cells.
# In an embodiment, a plurality of CHC/DMC-GEM having different DMC to GEM ratio including 1:1.2, 1:5, 1:12, and 1:25 are respectively incubated with A549-ON to find a component ratio with better synergistic effect. […]
# A549 = A549 cell viability / combination index; format: cell-based; details: Homo sapiens
# Text: as §1, §2
# In another preferable embodiment, A549 cells, which are selected as cancer cell model, are respectively incubated with DMC, GEM, CHC/DMC, and CHC/GEM. In Table 4, DMC or GEM encapsulated by CHC has smaller IC50 comparing to those without CHC encapsulation, proving that an anti-cancer component encapsulated by CHC has higher toxic effect to the cells.
# In an embodiment, a plurality of CHC/DMC-GEM having different DMC to GEM ratios including 1:2.5, 1:5, 1:10, and 1:20 are respectively incubated with A549 to find a drug ratio with better synergistic effect. After calculation, a CI versus Fa plot is shown in FIG. 7 based on the viability of A549 cells. […]
SMILES,IC50 (A549-ON) [µg/mL],IC50 (A549) [µg/mL]
"Nc1ccn([C@@H]2O[C@H](CO)[C@@H](O)C2(F)F)c(=O)n1 [GEM, Gemcitabine]",117,117
"COc1cc(/C=C/C(O)=C/C(=O)/C=C/c2ccc(O)cc2)ccc1O [DMC, Demethoxycurcumin]",10,10.3
